Positions count from the first letter of the chain named.
Assays:
[1] = target: T1, human 5-HT3A receptor D177A mutant (Homo sapiens, UniProt P46098, D199A); experiment: Two-electrode voltage clamp, I5-HT inhibition, D177A mutant; format: cell-based; settings: −80 mV
T1 sequence (P46098 24-478 D199A): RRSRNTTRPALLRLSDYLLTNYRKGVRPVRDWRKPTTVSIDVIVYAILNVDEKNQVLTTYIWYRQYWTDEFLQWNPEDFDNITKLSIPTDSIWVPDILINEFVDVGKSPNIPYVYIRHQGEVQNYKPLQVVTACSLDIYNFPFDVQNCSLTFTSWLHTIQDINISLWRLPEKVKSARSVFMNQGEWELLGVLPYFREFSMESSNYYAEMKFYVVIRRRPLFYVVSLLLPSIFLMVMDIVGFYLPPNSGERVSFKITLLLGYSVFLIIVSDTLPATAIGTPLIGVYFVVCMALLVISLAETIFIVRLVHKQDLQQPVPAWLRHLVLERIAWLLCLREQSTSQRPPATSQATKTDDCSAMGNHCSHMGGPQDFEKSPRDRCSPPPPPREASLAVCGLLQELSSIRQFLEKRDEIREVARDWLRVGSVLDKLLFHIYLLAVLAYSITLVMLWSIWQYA
Description: (§1) Xenopus oocytes were used in this study as cells for expression of human 5-HT3A receptor. All female frogs used in this experiment were obtained from the Korean Xenopus Resource Center for Research (KXRCR000001). […] Xenopus oocytes were extracted during ice incubation state and isolated as single oocytes using collagenase II (2 mg/mL) in OR2 buffer (82.5 mM NaCl, 2 mM KCl, 1 mM MgCl2, 5 mM HEPES, pH 7.4). Isolated oocytes were incubated with ND96 incubation buffer (96 mM NaCl, 2 mM KCl, 1 mM MgCl2, 1.8 mM CaCl2, 5 mM HEPES, 2.5 mM sodium pyruvate, and 50 mg/mL gentamycin, pH 7.4) at 18 °C until the experiment was performed. Human 5-HT3A receptor mRNA was injected into oocytes using a nanoinjector (Drummond Scientific, Broomall, PA, USA) with a mineral-filled 10 μL microdispenser (VWR, Piscataway, NJ, USA).
(§2) To confirm the KAE activity on the human 5-HT3A receptor, a two-electrode voltage clamp (OC-725C; Warner Instruments, Hamden, CT, USA) with a Digitata 1550A was used. For the experiment, induced-inward current was converted to digital data with pClamp 10 software (Axon Instruments, Union City, CA, USA). All experiments were performed at room temperature using an oocyte clamp equipped with Digidata. The membrane holding potential was −80 mV.
(§3) The voltage relationship experiment for confirming the relationship between induce-inward current and voltage, the voltage was varied from −80 mV to +60 mV using a ramp protocol. […] All recording data were analyzed using Clampfit 9.0 (Molecular Devices, San Jose, CA, USA). […]
(§4) All presented experiments were performed at least three times for scientific verification. […] Induced-inward current data were analyzed with SigmaPlot 10.0 software (Systat Software, Inc., San Jose, CA, USA). […]

[2] = target: T2, human 5-HT3A receptor T154A mutant (Homo sapiens, UniProt P46098, T176A); experiment: Two-electrode voltage clamp, I5-HT inhibition, T154A mutant; format: cell-based; settings: −80 mV
T2 sequence (P46098 24-478 T176A): T1 sequence (P46098 24-478 D199A) with T153A, A176D
Description: as §1, §2, §3, §4

[3] = set-up: method as in PMID 21428901; settings: lipophilic, penetrates the lipid bilayer; cited from earlier work
[4] = target: T3, human 5-HT3A receptor N101A mutant (Homo sapiens, UniProt P46098, N123A); experiment: Two-electrode voltage clamp, I5-HT inhibition, N101A mutant; format: cell-based
T3 construct: expressed in transfected cells; host or cells: Xenopus oocytes injected with mutant mRNA
T3 sequence (P46098 24-478 N123A): T1 sequence (P46098 24-478 D199A) with N100A, A176D
Description: Human 5-HT3A receptor cDNA was linearized using restriction enzyme XhoI. In vitro transcription was performed using an mMESSAGE mMACHINE T7 Transcription Kit (Thermo Fisher Scientific, Waltham, MA, USA). The final mRNA product was dissolved in 1X Diethyl Pyrocarbonate (RNase-free water) at a final concentration of 1 μg/μL and kept in a deep-freezer at −80 °C until used.
Xenopus oocytes were used in this study as cells for expression of human 5-HT3A receptor. All female frogs used in this experiment were obtained from the Korean Xenopus Resource Center for Research (KXRCR000001). […] Isolated oocytes were incubated with ND96 incubation buffer (96 mM NaCl, 2 mM KCl, 1 mM MgCl2, 1.8 mM CaCl2, 5 mM HEPES, 2.5 mM sodium pyruvate, and […], pH 7.4) at 18 °C until the experiment was performed. Human 5-HT3A receptor mRNA was injected into oocytes using a nanoinjector (Drummond Scientific, Broomall, PA, USA) with a mineral-filled 10 μL microdispenser (VWR, Piscataway, NJ, USA).
For the experiment, induced-inward current was converted to digital data with pClamp 10 software (Axon Instruments, Union City, CA, USA). All experiments were performed at room temperature using an oocyte clamp equipped with Digidata. The membrane holding potential was −80 mV.
The voltage relationship experiment for confirming the relationship between induce-inward current and voltage, the voltage was varied from −80 mV to +60 mV using a ramp protocol. Each microelectrode was filled with 3 M KCl having a resistance of 0.2 MΩ. Serotonin and KAE applied in the experiment were diluted in ND96 bath solution (96 mM NaCl, 2 mM KCl, 1 mM MgCl2, 1.8 mM CaCl2, and 5 mM HEPES, pH 7.5) to specified concentration. The rate of application of the reagent was 2 mL per minute. All recording data were analyzed using Clampfit 9.0 (Molecular Devices, San Jose, CA, USA). […]
All presented experiments were performed at least three times for scientific verification. […] Induced-inward current data were analyzed with SigmaPlot 10.0 software (Systat Software, Inc., San Jose, CA, USA).

With `O=c1c(O)c(-c2ccc(O)cc2)oc2cc(O)cc(O)c12` [KAE, kaempferol] the “n (Hill coefficient)” value [1] was 1.3 ± 0.2, the IC50 ([1]; Table 1) was 13.9 ± 4.2 µM and the Vmax ([1]; Table 1) was 23.3 ± 13.4%. The IC50 [2] was 33.4 ± 7.9 µM, the Vmax [2] was 73.5 ± 9.4% and the “n (Hill coefficient)” value [2] was 1.1 ± 0.4. For the same molecule, the “ability to cross the blood-brain barrier (BBB)” value [3] was “can cross the blood-brain barrier (BBB)”, the IC50 [4] was 56.4 ± 9.7 µM and the Vmax ([4]; N101A, −80 mV) was 83.7 ± 8.6%. For the same molecule, the “n (Hill coefficient)” value ([4]; N101A, −80 mV) was 1.1 ± 0.6.

From publication PMC8745345, “Hydroxy Pentacyclic Triterpene Acid, Kaempferol, Inhibits the Human 5-Hydroxytryptamine Type 3A Receptor Activity” (International Journal of Molecular Sciences, 2022)
